# Data from patent US20220233656A1, “ANTIBACTERIAL COMPOSITION” (NATIONAL UNIVERSITY CORPORATION TOKYO MEDICAL AND DENTAL …, priority 2019, published 2022).
# Legend:
# [1] = tested on: Pseudomonas aeruginosa (NBRC 13275); test: Transmission electron microscope observation; format: cell-based; settings: 37° C., 2 hours, complex 1,000 μg/mL, mixture 500 + 500 μg/mL; for morphological changes (TEM): lysozyme alone 500 μg/mL, chitosan alone 500 μg/mL
# Procedure: (§1) As a control, physiological saline (0.9% NaCl solution) was used.
# (§2) Then, centrifugation was performed, and the resultant pellets were washed with physiological saline (0.9% NaCl), fixed in a 1.0% buffered osmium tetroxide buffer solution in a 0.1 M phosphate buffered saline for 1 hour, embedded in 2.0% agar, dehydrated with ethanol, and then embedded in Epon 812 (TAAB Laboratories Equipment Ltd.). Ultrathin sections of 70 nm were collected on a copper grid, double-stained with uranyl acetate and lead citrate, and observed with a transmission electron microscope (H-7100) at 75 kV.
# Acinetobacter baumannii [2] = test: Transmission electron microscope observation; format: cell-based; settings: 37° C., 2 hours, complex 1,000 μg/mL, mixture 500 + 500 μg/mL; for morphological changes (TEM): lysozyme alone 500 μg/mL, chitosan alone 500 μg/mL
# Procedure: as §1, §2
# [3] = tested on: Acinetobacter baumannii (JCM 6841); test: Bacteria-killing test (Experimental Example 1); format: cell-based; settings: 2,000 μg/mL in physiological saline, 37° C., at 60 minutes and 120 minutes, versus control
# Procedure: The bacteria-killing property of the lysozyme-chitosan complex (LYZOX (registered trademark)) against Acinetobacter and the like was measured in comparison with a mixture of lysozyme and chitosan and the like.
# (§3) As a control, physiological saline (0.9% NaCl solution) was used. The Acinetobacter bacterial suspension or Pseudomonas aeruginosa bacterial suspension was prepared as follows. Pseudomonas aeruginosa (NBRC 13275 or PAO1) or Acinetobacter baumannii (JCM 6841) was grown overnight at 37° C. in trypsin soy broth (TSB), centrifuged during the logarithmic growth phase, and collected, and the bacteria were resuspended in physiological saline (0.9% NaCl), with such a final suspension concentration that the absorbance was 1.0 (10^8 to 10^9 CFU/mL) at 600 nm.
# (§4) At 0 minutes, 30 minutes, 60 minutes, and 120 minutes after the start of incubation, 0.1 mL of each solution was added to a solid medium (Mueller-Hinton medium) for overnight growth, and then the bacteria count was measured. The test of the bacterial suspensions against each solution was performed three times and measured.
# [4] = tested on: Pseudomonas aeruginosa (NBRC 13275); test: Cell membrane integrity test (absorbance at 260 nm); format: cell-based
# Description: (§5) The measurement of absorbance at 260 nm (A260nm) was used to estimate the amount of nucleic acid released from the cytoplasm, thereby evaluating the integrity of the cell membrane. When a bacterial cell membrane is compromised by an antibacterial agent, intracellular components are released into the extracellular space. The measurement of absorbance at 260 nm is used to estimate the amount of DNA and RNA released from the cytoplasm.
# (§6) Specifically, evaluation on whether substances with absorption at 260 nm were released from the bacteria was performed by measuring the absorption at 260 nm with ND-1000 manufactured by Thermo Fisher Scientific. […] As a control, a 0.5% NaCl solution was used. The Pseudomonas aeruginosa bacterial suspension and Acinetobacter bacterial suspension prepared in the same manner as in Experimental Example 1 were resuspended in a 0.5% NaCl solution, and prepared with such a final suspension concentration that the absorbance at 420 nm was 0.7. […] At 20 minutes, 40 minutes, 60 minutes, 80 minutes, 100 minutes, and 120 minutes after the start of incubation, each solution was subjected to a 0.22 μm syringe filter to remove bacteria, and the absorbance at 260 nm (A260nm) was measured. The results for absorbance, expressed as the average of triplicate measurements and SEM (standard error of sample mean), are shown in FIGS. 4A and 4B.
# [5] = tested on: Pseudomonas aeruginosa (NBRC 13275); test: Growth suppression effect test at various concentrations (Experimental Example 4); format: cell-based; settings: 2,000 μg/mL, 5,000 μg/mL and 10,000 μg/mL in TSB, 6 hours
# Procedure: (§7) As a control, TSB medium without additives was used. The Acinetobacter bacterial suspension or Pseudomonas aeruginosa bacterial suspension was prepared in the same way as in Experimental Example 1 described above. […] After 6 hours, 0.1 mL of each solution was added to a solid medium (Mueller-Hinton medium) and allowed to grow overnight, and then the bacteria count was measured. The bacterial suspensions were tested on each solution 18 times for Pseudomonas aeruginosa (NBRC 13275) and 8 times each for Pseudomonas aeruginosa (PAO1) and Acinetobacter by duplicate (mean of triplicate measurements and SEM (standard error of sample mean)) in independent experiments.
# Acinetobacter (JCM 6841) [6] = test: ONPG assay (intracellular membrane permeability test); format: cell-based, Acinetobacter baumannii; settings: for absorbance 420 nm (ONPG), time course: up to 100 minutes
# Procedure: (§8) Intracellular membrane permeability was determined by ONPG assay (o-nitrophenyl-β-D-galactopyranoside (ONPG) assay). When the cell membrane is damaged, intracellular enzymes, including β-galactosidase, leak out of the cell. ONPG is normally colorless, but is hydrolyzed by β-galactosidase to galactose and o-nitrophenol, resulting in an increase in absorbance at 420 nm. The intracellular membrane permeability of bacteria can be determined by measuring the activity of cytosolic β-galactosidase released from the bacteria using ONPG as a substrate.
# (§9) Specifically, evaluation on whether substances with absorption at 420 nm were released was performed by measuring the absorption at 420 nm with the spectrophotometer ASV11D. […] As a control, a 0.5% NaCl solution was used. The Pseudomonas aeruginosa bacterial suspension and Acinetobacter bacterial suspension prepared in the same manner as in Experimental Example 1 were resuspended in a 0.5% NaCl solution, and prepared with such a final suspension concentration that the absorbance at 420 nm was 1.2. […] The increase in absorbance at 420 nm (A420nm) was evaluated by performing triplicate measurements.
# [7] = tested on: Pseudomonas aeruginosa (NBRC 13275); test: Confocal laser scanning microscope observation (LIVE/DEAD BacLight); format: cell-based; settings: final 1,000 μg/mL, 37° C., 2 hours
# Procedure: (§10) As a control, physiological saline (0.9% NaCl solution) was used. To 500 μL of these solutions, 500 μL of Pseudomonas aeruginosa bacterial suspension and Acinetobacter bacterial suspension prepared in the same manner as in Experimental Example 1 above was added, and incubated at 37° C. for 2 hours. Then, 3 μL of LIVE/DEAD BacLight reagent (a mixture of SYTO 9 and propidium iodide (PI), which stain nucleic acids) was added and further incubated for 15 minutes at room temperature. SYTO 9 with green fluorescence labels all bacteria, while PI with red fluorescence permeates only bacteria with damaged plasma membranes, and the presence of both dyes attenuates the fluorescence of SYTO 9.
# [8] = tested on: Acinetobacter baumannii (JCM 6841); test: Growth suppression effect test (Experimental Example 3); format: cell-based; settings: 2,000 μg/mL in TSB, 37° C., 6 hours, versus control
# Procedure: as §7
# [9] = tested on: Pseudomonas aeruginosa (NBRC 13275); test: ONPG assay (intracellular membrane permeability test); format: cell-based; settings: final 200, 2,000 and 5,000 μg/mL
# Procedure: as §8, §9
# Acinetobacter baumannii [10] = test: Drug resistance acquisition test (MIC after repeated subculture); format: cell-based; settings: after 10 subcultures at ½ MIC in LB medium
# Procedure: (§11) The MIC was defined as the minimum concentration of the reagent without visual turbidity observed after 18 hours and 24 hours of evaluation. […] The bacteria that were not subcultured was evaluated as a control (CTL in FIGS. 10A and 10B). MIC measurements were repeated 10 times to evaluate the development of drug resistance in these bacteria.
# [11] = tested on: Pseudomonas aeruginosa (NBRC 13275 and PAO 1); test: as above; format: cell-based; settings: after 10 subcultures at ½ MIC in LB medium
# Procedure: as §11
# [12] = tested on: Pseudomonas aeruginosa (NBRC 13275); test: Bacteria-killing test at various concentrations (Experimental Example 2); format: cell-based; settings: 200 μg/mL, 2,000 μg/mL and 10,000 μg/mL in physiological saline
# Procedure: as §3, §4
# Acinetobacter (JCM 6841) [13] = test: Confocal laser scanning microscope observation (LIVE/DEAD BacLight); format: cell-based, Acinetobacter baumannii; settings: final 1,000 μg/mL, 37° C., 2 hours
# Procedure: as §10
# Acinetobacter (JCM 6841) [14] = test: Cell membrane integrity test (absorbance at 260 nm); format: cell-based, Acinetobacter baumannii
# Description: as §5, §6
# [15] = final 2,000, 5,000 and 10,000 μg/mL, 0.5% NaCl, 37° C.
# [16] = various concentrations, 20 to 120 minutes
# Procedure for rabbit erythrocytes: Each resulting mixed solution was incubated at 37° C. for 1 hour, and centrifuged at 1500 rpm for 10 minutes, and the supernatant was collected. […] Each absorbance (OD) was measured at 545 nm to calculate the hemolytic rate by using the following formula. The absorbance value at 545 nm was expressed as the average and SEM (standard error of the sample mean) of triplicate measurements.
substance,measurement,setting,value
"poly-β1→4-glucosamine [chitosan alone, reference compound]",morphological changes (TEM),[1],formed numerous vesicles on their surfaces
same,morphological changes (TEM),Acinetobacter baumannii [2],formed numerous vesicles on their surfaces
"lysozyme-chitosan complex: Commercial LYZOX powder: chicken-derived lysozyme (about 14,000 Da) and about 5,000 Da water-soluble chitosan, mass ratio 1:1, bound by Maillard reaction",bacteria count (bacteria-killing),[3],significantly reduced the bacteria count than the control
same,"absorbance 260 nm, dependence on concentration",[4]; [15],increased in a concentration-dependent manner
same,"absorbance 260 nm, time course",[4]; [16],"increased rapidly in the first 20 minutes, and then the rate of increase decreased until 120 minutes"
same,growth suppression effect (bacteria count),[5],concentration-dependent growth suppression effect
same,"absorbance 420 nm (ONPG), time course",Acinetobacter (JCM 6841) [6]; 200 μg/mL,increased in the first 10 minutes and remained constant thereafter
same,"absorbance 420 nm (ONPG), time course","Acinetobacter (JCM 6841) [6]; 2,000 μg/mL and 5,000 μg/mL",increased rapidly at first and then slowly until 100 minutes
same,effect on the inner membrane,Acinetobacter (JCM 6841) [6]; ONPG assay,disrupt the inner membrane of Acinetobacter
same,"absorbance 420 nm (ONPG), dependence on concentration","Acinetobacter (JCM 6841) [6]; final 200, 2,000 and 5,000 μg/mL",increased in a concentration-dependent manner
same,aggregation of bacterial cells (CLSM),[7],aggregated to form clusters
same,"bacterial cells with damaged membranes (red fluorescence, CLSM)",[7],more bacterial cells with damaged membranes than in the corresponding control
same,bacteria count (growth suppression),[8],significantly reduced the bacteria count than the control
same,"absorbance 420 nm (ONPG), dependence on concentration",[9],increased in a concentration-dependent manner
same,acquisition of drug resistance (change of MIC),Acinetobacter baumannii [10],did not acquire resistance
same,acquisition of drug resistance (change of MIC),[11],did not acquire resistance
same,morphological changes (TEM),[1],spherical cells with outer membrane vesicles
same,cell walls and intracellular contents (TEM),[1],bacterial cell walls were disrupted and the intracellular contents were released from the cells
same,morphological changes (TEM),Acinetobacter baumannii [2],spherical cells with outer membrane vesicles
same,cell walls and intracellular contents (TEM),Acinetobacter baumannii [2],bacterial cell walls were disrupted and the intracellular contents were released from the cells
same,bacteria-killing activity (bacteria count),[12],concentration-dependent bacteria-killing activity
same,aggregation of bacterial cells (CLSM),Acinetobacter (JCM 6841) [13],less aggregation of bacterial cells than Pseudomonas aeruginosa
same,"bacterial cells with damaged membranes (red fluorescence, CLSM)",Acinetobacter (JCM 6841) [13],more bacterial cells with damaged membranes than in the corresponding control
same,"absorbance 260 nm, dependence on concentration",Acinetobacter (JCM 6841) [14]; [15],increased in a concentration-dependent manner
same,absorbance 260 nm compared to the control,"Acinetobacter (JCM 6841) [14]; final 2,000, 5,000 and 10,000 μg/mL, 20 to 120 minutes",higher absorbance in Acinetobacter compared to the control
same,"absorbance 260 nm, time course",Acinetobacter (JCM 6841) [14]; [16],"increased rapidly in the first 20 minutes, and then the rate of increase decreased until 120 minutes"
same,hemolysis of rabbit erythrocytes,rabbit erythrocytes,almost did not hemolyze
"lysozyme alone: lysozyme (manufactured by Nippon Biocon Ltd.), enzyme that hydrolyzes mucopolysaccharides [reference compound]",morphological changes (TEM),[1],formed spheroplasts
same,morphological changes (TEM),Acinetobacter baumannii [2],formed spheroplasts
